Experimental data from patent US8592421B2, “Cyclic bioisosters of purine system derivatives and a pharmaceutical composition based thereon” (priority 2003, dated 2013).

Key:
Assay type in all cases: in vivo, rats
[1] = Chronic toxicity of suppositories: indexes of urine; conditions: rats, suppositories rectal, 1 month after administration
Procedure: The experiments were conducted on inbred rats.

[2] = Chronic toxicity of suppositories: indexes of peripheral blood; set-up: Thrombocytes: unit not given here; conditions: male rats, suppositories rectally; for Basophiles / Juveniles: 1 month/2 months (one value given), control 0
[3] = Morphine abstinence model: thymus condition (mass, nitrites); conditions: for Nitrites in thymus supernatant: control 0.331 ± 0.041; for Thymus mass: control 230 ± 14
Text: The spectrometric method is based the reaction of nitrites with the Griss reagent (a mixture of 2% solution of sulfanilamide and 0.2% N-(1-naphthyl)ethylene diamine. At the first step the nitrite reacts with sulfanilamide with formation of diazonium salt, and then with the second component to form azo dye with an adsorption maximum at 540 nm. For reduction of nitrates into nitrites, a fermentative method was used with bacterial reductase nitrate (Grisham M. B. et al., 1995). The samples of plasma and supernathant of the liver deproteinizated at 100° C. for 5 minutes incubated for 30 minutes at 37° C. in 50.0 mM of HEPES pH 7.4 in the presence of 0.2 unit/ml of Aspergillus reductase nitrate, 5.0 mkM of FAD and 0.1 mM of NAD-Ph. At the end of the reaction lactate dehydrogenase and pyruvate were added for isolation of NAD-Ph interfering with the Griss reaction. Then the Griss reagent was added and after 10-minute incubation the light absorption of the samples was measured at 540 nm. To amount of NOX^− was calculated using sodium nitrate as a standard.
The effect of the compounds according to the invention on the condition of the thymus of the rats was also investigated: a control group, an experimental group of morphinized animals and an experimental group of animals were first morphinized and then injected with the compounds according to the invention. The experiment was carried out similarly to that described above.

[4] = 50 mg/kg, 1 month, control 0.8 ± 0.4
[5] = 50 mg/kg, 1 month, control 2.2 ± 0.4
[6] = 50 mg/kg, 1 month, control 2.8%0.3
[7] = 50 mg/kg, 1 month, control 4.0 + 0.3
[8] = 50 mg/kg, 1 month, control 5.6 ± 0.1
[9] = 50 mg/kg, 1 month, control 10.5 ± 0.2
[10] = 50 mg/kg, 1 month, control 17.4 ± 1.3
[11] = 50 mg/kg, 1 month, control 45.9 ± 1.7
[12] = 50 mg/kg, 1 month, control 81.4 ± 1.7
[13] = 50 mg/kg, 1 month, control 152 ± 10.2
[14] = 50 mg/kg, 2 months, control 1.4 ± 0.2
[15] = 50 mg/kg, 2 months, control 2.4 ± 0.4
[16] = 50 mg/kg, 2 months, control 2.9 ± 0.2
[17] = 50 mg/kg, 2 months, control 4.4 + 1.2
[18] = 50 mg/kg, 2 months, control 6.1 ± 0.1
[19] = 50 mg/kg, 2 months, control 11.4 ± 0.2
[20] = 50 mg/kg, 2 months, control 19.1 ± 1.9
[21] = 50 mg/kg, 2 months, control 45.9 ± 1.8
[22] = 50 mg/kg, 2 months, control 74.6 + 1.9
[23] = 50 mg/kg, 2 months, control 316 ± 8
[24] = 500 mg/kg, 1 month, control 0.8 ± 0.4
[25] = 500 mg/kg, 1 month, control 2.2 ± 0.4
[26] = 500 mg/kg, 1 month, control 2.8%0.3
[27] = 500 mg/kg, 1 month, control 4.0 + 0.3
[28] = 500 mg/kg, 1 month, control 5.6 ± 0.1
[29] = 500 mg/kg, 1 month, control 10.5 ± 0.2
[30] = 500 mg/kg, 1 month, control 17.4 ± 1.3
[31] = 500 mg/kg, 1 month, control 45.9 ± 1.7
[32] = 500 mg/kg, 1 month, control 81.4 ± 1.7
[33] = 500 mg/kg, 1 month, control 152 ± 10.2
[34] = 500 mg/kg, 2 months, control 1.4 ± 0.2
[35] = 500 mg/kg, 2 months, control 2.4 ± 0.4
[36] = 500 mg/kg, 2 months, control 2.9 ± 0.2
[37] = 500 mg/kg, 2 months, control 4.4 + 1.2
[38] = 500 mg/kg, 2 months, control 6.1 ± 0.1
[39] = 500 mg/kg, 2 months, control 11.4 ± 0.2
[40] = 500 mg/kg, 2 months, control 19.1 ± 1.9
[41] = 500 mg/kg, 2 months, control 45.9 ± 1.8
[42] = 500 mg/kg, 2 months, control 74.6 + 1.9
[43] = Administration of morphine and compound

**Q.** What does the source list for `Nc1cccc2c(=O)[nH][nH]c(=O)c12.[Na]` [Compound 15, sodium salt of 5-amino-benzo[d]-3H-pyridazine-1,4-dione]?
**A.** Bilirubin (urine) ([1]; dose 50 mg/kg): <5 Mkmol/l; Glucose (urine) ([1]; dose 50 mg/kg): <6 mmol/L; Ketone bodies (urine) ([1]; dose 50 mg/kg): <1 mmol/L; Potassium (urine) ([1]; dose 50 mg/kg): 5.28 ± 1.5 g/L; Protein (urine) ([1]; dose 50 mg/kg): 0.71 ± 0.274 g/L; Sodium (urine) ([1]; dose 50 mg/kg): 1.2 ± 0.4 g/L; Urea (urine) ([1]; dose 50 mg/kg): 413 ± 128 mmol/L; Urobilinogen (urine) ([1]; dose 50 mg/kg): <17 Mkmol/l; pH (urine) ([1]; dose 50 mg/kg): 6.3 ± 0.4; Bilirubin (urine) ([1]; dose 500 mg/kg): <5 Mkmol/l; Glucose (urine) ([1]; dose 500 mg/kg): <6 mmol/L; Ketone bodies (urine) ([1]; dose 500 mg/kg): <1 mmol/L; Potassium (urine) ([1]; dose 500 mg/kg): 6.13 ± 1.6 g/L; Protein (urine) ([1]; dose 500 mg/kg): 0.87 ± 0.24 g/L; Sodium (urine) ([1]; dose 500 mg/kg): 0.64 ± 0.4 g/L; Urea (urine) ([1]; dose 500 mg/kg): 485 ± 131 mmol/L; Urobilinogen (urine) ([1]; dose 500 mg/kg): <17 Mkmol/l; pH (urine) ([1]; dose 500 mg/kg): 6.2 ± 0.3; Basophiles ([2]; 50 mg/kg): 0%; Juveniles ([2]; 50 mg/kg): 0%; Stab neutrophil [2, 4]: 1.2 ± 0.5%; REE [2, 5]: 1.8 ± 0.4 mm/h; Reticulocytes [2, 6]: 2.6 ± 0.2%; Eosinophiles [2, 7]: 3.2 ± 1.0%; Erythrocytes [2, 8]: 5.7 ± 0.2 mln/mm^3; Hemoglobin [2, 9]: 10.6 ± 0.2 mmol/L; Leukocyte [2, 10]: 14.8 ± 2.0 thousand/mm^3; Haematocrite [2, 11]: 47.9 ± 1.4%; Average volume of erythrocytes [2, 12]: 84.4 ± 1.5 Mkm^3; Coagulation, time [2, 13]: 140 ± 12.2 s; REE [2, 14]: 1.6 ± 0.2 mm/h; Stab neutrophil [2, 15]: 0.8 ± 0.5%; Reticulocytes [2, 16]: 3.0 ± 0.1%; Eosinophiles [2, 17]: 3.6 ± 1.2%; Erythrocytes [2, 18]: 6.0 ± 0.1 mln/mm^3; Hemoglobin [2, 19]: 11.2 ± 0.1 mmol/L; Leukocyte [2, 20]: 16.3 ± 1.0 thousand/mm^3; Haematocrite [2, 21]: 47.5 ± 1.2%; Average volume of erythrocytes [2, 22]: 78.6 ± 1.5 Mkm^3; Coagulation, time [2, 23]: 321 ± 12 s; Basophiles ([2]; 500 mg/kg): 0%; Juveniles ([2]; 500 mg/kg): 0%; Stab neutrophil [2, 24]: 0.8 ± 0.5/0.8 ± 0.5%; REE [2, 25]: 2.2 ± 0.4 mm/h; Reticulocytes [2, 26]: 3.1 ± 0.2%; Eosinophiles [2, 27]: 3.0 ± 1.0%; Erythrocytes [2, 28]: 5.7 ± 0.1 mln/mm^3; Hemoglobin [2, 29]: 10.6 ± 0.2 mmol/L; Leukocyte [2, 30]: 17.0 ± 1.4 thousand/mm^3; Haematocrite [2, 31]: 47.6 ± 1.3%; Average volume of erythrocytes [2, 32]: 82.6 ± 1.1 Mkm^3; Coagulation, time [2, 33]: 151 ± 6.4 s; REE [2, 34]: 1.8 ± 0.4 mm/h; Stab neutrophil [2, 35]: 0.8 ± 0.5/0.8 ± 0.5%; Reticulocytes [2, 36]: 3.3 ± 0.3%; Eosinophiles [2, 37]: 3.2 ± 1.4%; Erythrocytes [2, 38]: 6.7 ± 0.2 mln/mm^3; Hemoglobin [2, 39]: 12.5 ± 0.4 mmol/L; Leukocyte [2, 40]: 21.1 ± 2.4 thousand/mm^3; Haematocrite [2, 41]: 53.9 ± 2.1%; Average volume of erythrocytes [2, 42]: 80.21 ± 1.2 Mkm^3; Coagulation, time ([2]; 500 mg/kg, 2 months, control 316 ± 8): 308 ± 16 s; Nitrites in thymus supernatant ([3]; Administration of compounds): 0.407 ± 0.02 nmol/mg of protein; Thymus mass ([3]; Administration of compounds): 298 ± 25 mg; Nitrites in thymus supernatant [3, 43]: 0.383 ± 0.02 nmol/mg of protein; Thymus mass [3, 43]: 214 ± 12 mg

**Q.** What does the source list for `O=c1[nH][nH]c(=O)c2c(Br)ncnc12.[K]` [Compound 37, potassium salt of 4-bromine-pyrimido[4,5-D]-6H-pyridazine-5,8-dione]?
**A.** Bilirubin (urine) ([1]; dose 50 mg/kg): <5 Mkmol/l; Glucose (urine) ([1]; dose 50 mg/kg): <5 mmol/L; Ketone bodies (urine) ([1]; dose 50 mg/kg): <1 mmol/L; Potassium (urine) ([1]; dose 50 mg/kg): 6.12 ± 1.4 g/L; Protein (urine) ([1]; dose 50 mg/kg): 0.70 ± 0.19 g/L; Sodium (urine) ([1]; dose 50 mg/kg): 1.4 ± 0.2 g/L; Urea (urine) ([1]; dose 50 mg/kg): 427 ± 137 mmol/L; Urobilinogen (urine) ([1]; dose 50 mg/kg): <15 Mkmol/l; pH (urine) ([1]; dose 50 mg/kg): 6.4 ± 0.4; Bilirubin (urine) ([1]; dose 500 mg/kg): <5 Mkmol/l; Glucose (urine) ([1]; dose 500 mg/kg): <5 mmol/L; Ketone bodies (urine) ([1]; dose 500 mg/kg): <1 mmol/L; Potassium (urine) ([1]; dose 500 mg/kg): 6.44 ± 1.3 g/L; Protein (urine) ([1]; dose 500 mg/kg): 0.72 ± 0.14 g/L; Sodium (urine) ([1]; dose 500 mg/kg): 0.88 ± 0.4 g/L; Urea (urine) ([1]; dose 500 mg/kg): 489 ± 152 mmol/L; Urobilinogen (urine) ([1]; dose 500 mg/kg): <15 Mkmol/l; pH (urine) ([1]; dose 500 mg/kg): 6.2 ± 0.3; Basophiles ([2]; 50 mg/kg): 0%; Juveniles ([2]; 50 mg/kg): 0%; Stab neutrophil [2, 4]: 1.3 ± 0.5%; REE [2, 5]: 1.8 ± 0.3 mm/h; Reticulocytes [2, 6]: 2.6 ± 0.1%; Eosinophiles [2, 7]: 3.8 ± 0.8%; Erythrocytes [2, 8]: 5.6 ± 0.2 mln/mm^3; Hemoglobin [2, 9]: 10.5 ± 0.1 mmol/L; Leukocyte [2, 10]: 14.9 ± 1.5 thousand/mm^3; Haematocrite [2, 11]: 47.8 ± 1.4%; Average volume of erythrocytes [2, 12]: 83.9 ± 1.7 Mkm^3; Coagulation, time [2, 13]: 151 ± 13 s; Thrombocytes ([2]; 50 mg/kg, 1 month, control 707 ± 23): 675 ± 22; REE [2, 14]: 1.6 ± 0.3 mm/h; Stab neutrophil [2, 15]: 1.9 ± 0.4%; Reticulocytes [2, 16]: 3.1 ± 0.1%; Eosinophiles [2, 17]: 4.2 ± 0.3%; Erythrocytes [2, 18]: 6.2 ± 0.1 mln/mm^3; Hemoglobin [2, 19]: 11.0 ± 0.1 mmol/L; Leukocyte [2, 20]: 16.7 ± 1.2 thousand/mm^3; Haematocrite [2, 21]: 47.5 ± 1.2%; Average volume of erythrocytes [2, 22]: 78.5 ± 1.4 Mkm^3; Coagulation, time [2, 23]: 319 ± 12 s; Thrombocytes ([2]; 50 mg/kg, 2 months, control 593 ± 14): 609 ± 18; Basophiles ([2]; 500 mg/kg): 0%; Juveniles ([2]; 500 mg/kg): 0%; Stab neutrophil [2, 24]: 0.9 ± 0.4%; REE [2, 25]: 2.2 ± 0.3 mm/h; Reticulocytes [2, 26]: 3.0 ± 0.2%; Eosinophiles [2, 27]: 3.5 ± 1.0%; Erythrocytes [2, 28]: 5.7 ± 0.1 mln/mm^3; Hemoglobin [2, 29]: 10.6 ± 0.1 mmol/L; Leukocyte [2, 30]: 17.1 ± 0.9 thousand/mm^3; Haematocrite [2, 31]: 47.9 ± 1.8%; Average volume of erythrocytes [2, 32]: 82.3 ± 1.5 Mkm^3; Coagulation, time [2, 33]: 157 ± 14 s; REE [2, 34]: 2.0 ± 0.1 mm/h; Stab neutrophil [2, 35]: 1.1 ± 0.6%; Reticulocytes [2, 36]: 3.4 ± 0.2%; Eosinophiles [2, 37]: 4.1 ± 1.3%; Erythrocytes [2, 38]: 6.5 ± 0.2 mln/mm^3; Hemoglobin [2, 39]: 12.1 ± 0.4 mmol/L; Leukocyte [2, 40]: 18.7 ± 1.7 thousand/mm^3; Haematocrite [2, 41]: 52.5 ± 1.7%; Average volume of erythrocytes [2, 42]: 80.1 ± 1.0 Mkm^3; Thrombocytes ([2]; 500 mg/kg, 2 months, control 593 ± 14): 639 ± 34; Nitrites in thymus supernatant ([3]; Administration of compounds): 0.410 ± 0.01 nmol/mg of protein; Thymus mass ([3]; Administration of compounds): 263 ± 21 mg; Nitrites in thymus supernatant [3, 43]: 0.387 ± 0.01 nmol/mg of protein; Thymus mass [3, 43]: 228 ± 15 mg
